Experimental data reported in PubChem BioAssay (NCI).
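1) Cells in 96-well plates. 2) Compound, 48 h, 5 concentrations. 3) Linear interpolation between surrounding doses. 4) Unreached endpoint = highest concentration. The concentration for 50% growth inhibition is given as GI50. TGI is the concentration that stops growth completely.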

Experiments:
Assay in all cases: inhibition of tumour cell growth, NCI panel, 48 h
[1] = system: DU-145 prostate
[2] = system: HOP-62 NSCLC
[3] = system: HOP-92 NSCLC
[4] = system: MALME-3M melanoma
[5] = system: NCI-H23 lung
[6] = system: NCI/ADR-RES ovarian
[7] = system: SF-295 CNS
[8] = system: SF-539 CNS
[9] = system: SK-OV-3 ovarian
[10] = system: UACC-62 melanoma

COc1cc(C)c(N(C)C(=O)CN(C)C)cc1Nc1nc(Nc2cccc(F)c2C(N)=O)c2cc[nH]c2n1
GI50 [1]: > 25 µM
TGI [1]: > 25 µM
GI50 [2]: > 25 µM
TGI [2]: > 25 µM
GI50 [3]: 645 nM
TGI [3]: 16.2 µM
GI50 [4]: > 25000 nM
TGI [4]: > 25 µM
GI50 [5]: > 25 µM
TGI [5]: > 25 µM
GI50 [6]: > 25 µM
TGI [6]: > 25 µM
GI50 [7]: > 25 µM
TGI [7]: > 25 µM
GI50 [8]: > 25000 nM
TGI [8]: > 25 µM
GI50 [9]: > 25 µM
TGI [9]: > 25 µM
GI50 [10]: > 25000 nM
TGI [10]: > 25 µM

CCCCCn1ncc(-c2c(O)c(O)cc3c(O)c(-c4c(C)cc5c(-c6cnn(CCCCC)n6)c(O)c(O)cc5c4O)c(C)cc23)n1
GI50 [1]: 0.0647 µM
TGI [1]: 6.02 µM
GI50 [2]: 0.14 µM
TGI [2]: 2.75 µM
GI50 [3]: 72.3 nM
TGI [3]: 0.242 µM
GI50 [4]: 138 nM
TGI [4]: 4.73 µM
GI50 [5]: 0.078 µM
TGI [5]: 3.66 µM
GI50 [6]: 0.903 µM
TGI [6]: 5.32 µM
GI50 [7]: 0.108 µM
TGI [7]: 4.6 µM
GI50 [8]: 135 nM
TGI [8]: 4.06 µM
GI50 [9]: 0.142 µM
TGI [9]: 2.64 µM
GI50 [10]: 145 nM
TGI [10]: 1.27 µM

CN([N-]C(=O)CC(=O)[N-]N(C)C(=S)c1ccccc1)C(=S)c1ccccc1.[Cu+2]
GI50 [1]: 0.033 µM
TGI [1]: 0.133 µM
GI50 [2]: 0.134 µM
TGI [2]: 0.275 µM
GI50 [3]: 33.3 nM
TGI [3]: 0.098 µM
GI50 [4]: 19.4 nM
TGI [4]: 0.0585 µM
GI50 [5]: 0.0241 µM
TGI [5]: 0.141 µM
GI50 [6]: < 0.0261 µM
TGI [6]: 0.456 µM
GI50 [7]: 0.0635 µM
TGI [7]: 0.225 µM
GI50 [8]: 142 nM
TGI [8]: 0.275 µM
GI50 [9]: 0.0263 µM
TGI [9]: 0.114 µM
GI50 [10]: 33.2 nM
TGI [10]: 0.149 µM

O=C1c2ccccc2C(=O)c2c1c(NCCNCCO)c1cc[nH]c1c2NCCNCCO
GI50 [1]: 3.31 µM
TGI [1]: > 59 µM
GI50 [2]: 2.6 µM
TGI [2]: > 22.2 µM
GI50 [3]: 3060 nM
TGI [3]: 16.5 µM
GI50 [4]: 1800 nM
TGI [4]: 5.16 µM
GI50 [5]: 7.9 µM
TGI [5]: > 27.9 µM
GI50 [6]: > 100 µM
TGI [6]: > 100 µM
GI50 [7]: 4.37 µM
TGI [7]: 43 µM
GI50 [8]: 1250 nM
TGI [8]: 14.5 µM
GI50 [9]: 2.85 µM
TGI [9]: 13.6 µM
GI50 [10]: 1480 nM

CN1CCN(c2ccc3nc(-c4ccc5nc(-c6ccc(C(F)(F)F)cc6)[nH]c5c4)[nH]c3c2)CC1
GI50 [1]: 1.76 µM
TGI [1]: 3.25 µM
GI50 [2]: 1.63 µM
TGI [2]: 3.42 µM
GI50 [3]: 2490 nM
TGI [3]: 14.7 µM
GI50 [4]: 1080 nM
TGI [4]: 2.44 µM
GI50 [5]: 1.71 µM
TGI [5]: 3.5 µM
GI50 [6]: 25.7 µM
TGI [6]: > 100 µM
GI50 [7]: 2.44 µM
TGI [7]: 9.51 µM
GI50 [8]: 1620 nM
TGI [8]: 3.09 µM
GI50 [10]: 1580 nM
TGI [10]: 3.05 µM

CCCN(CCC)c1ccc(C=O)c(OC)c1
GI50 [1]: 26.6 µM
TGI [1]: > 100 µM
GI50 [2]: 32 µM
TGI [2]: > 100 µM
GI50 [3]: 13300 nM
TGI [3]: 86.7 µM
GI50 [4]: 18700 nM
TGI [4]: 64.6 µM
GI50 [5]: 22.2 µM
TGI [5]: > 100 µM
GI50 [6]: 28.9 µM
TGI [6]: > 100 µM
GI50 [7]: 15.8 µM
TGI [7]: 64.5 µM
GI50 [8]: 26000 nM
TGI [8]: > 100 µM
GI50 [9]: 25.8 µM
TGI [9]: > 100 µM
GI50 [10]: 16300 nM
TGI [10]: 55.4 µM

S=C1SC2(CCCCCC2)NC2=C1CCCCC2
TGI [1]: > 100 µM
TGI [2]: > 100 µM
TGI [3]: 67.3 µM
TGI [4]: > 100 µM
TGI [5]: > 100 µM
TGI [6]: > 100 µM
TGI [7]: 99 µM
TGI [8]: > 100 µM
TGI [9]: > 100 µM
TGI [10]: > 100 µM

O=c1c2ccccc2c(C=NCCNCCO)c2oc3ccccc3n12
GI50 [1]: 12.1 µM
TGI [1]: 24.5 µM
GI50 [2]: 13 µM
TGI [2]: 25.6 µM
GI50 [3]: 11700 nM
TGI [3]: 26.9 µM
GI50 [5]: 19.5 µM
TGI [5]: 33.6 µM
GI50 [6]: 13.8 µM
TGI [6]: 26.7 µM
GI50 [7]: 3.72 µM
TGI [7]: 13.6 µM
GI50 [8]: 3510 nM
TGI [8]: 12.2 µM
GI50 [9]: 3.58 µM
TGI [9]: 15.9 µM
GI50 [10]: 11600 nM
TGI [10]: 23.8 µM

COc1ccc(S(=O)(=O)N2CCCCC2)cc1NC(=O)c1[nH]c(C)c2c1CCCCC2=O
GI50 [1]: 7.56 µM
TGI [1]: > 100 µM
GI50 [2]: 0.904 µM
TGI [2]: > 100 µM
GI50 [3]: 590 nM
TGI [3]: 48.6 µM
GI50 [4]: 1760 nM
TGI [4]: 93.8 µM
GI50 [5]: 3.11 µM
TGI [5]: > 100 µM
GI50 [6]: 3.67 µM
TGI [6]: > 100 µM
GI50 [7]: 2.52 µM
TGI [7]: > 100 µM
GI50 [8]: 2310 nM
TGI [8]: > 100 µM
GI50 [9]: 2.14 µM
TGI [9]: 44.4 µM
GI50 [10]: 356 nM
TGI [10]: 7.74 µM

CC(C)NCCCNC1=C(Cl)C(=O)c2ccccc2C1=O
GI50 [1]: 1.98 µM
TGI [1]: 3.49 µM
GI50 [2]: 13.8 µM
TGI [2]: 27.4 µM
GI50 [3]: 14600 nM
TGI [3]: 31.2 µM
GI50 [4]: 1970 nM
TGI [4]: 3.69 µM
GI50 [5]: 1.88 µM
TGI [5]: 4.56 µM
GI50 [6]: 12 µM
TGI [6]: 28.6 µM
GI50 [8]: 16500 nM
TGI [8]: 31.8 µM
GI50 [9]: 15.8 µM
TGI [9]: 29.4 µM
GI50 [10]: 2100 nM
TGI [10]: 4.91 µM

CC(C)(C)c1ccc(NC(=O)c2cc(=O)c3ccccc3[nH]2)c(C(C)(C)C)c1O
GI50 [1]: 10.7 µM
TGI [1]: 23.5 µM
GI50 [2]: 12.5 µM
TGI [2]: 25.3 µM
GI50 [3]: 2880 nM
TGI [3]: 12.8 µM
GI50 [4]: 12100 nM
TGI [4]: 26.3 µM
GI50 [5]: 3.33 µM
TGI [5]: 14.1 µM
GI50 [6]: 9.11 µM
TGI [6]: 24.4 µM
GI50 [7]: 6.25 µM
TGI [7]: 20.2 µM
GI50 [8]: 13000 nM
TGI [8]: 26.3 µM
GI50 [9]: 13.8 µM
TGI [9]: 26.8 µM
GI50 [10]: 9650 nM
TGI [10]: 22.9 µM

Cc1occc1C(=S)Nc1ccc(Cl)c(C(=O)OCC2CC2)c1
TGI [1]: > 100 µM
TGI [3]: > 100 µM
TGI [4]: > 100 µM
TGI [5]: > 100 µM
TGI [6]: > 100 µM
TGI [7]: > 100 µM
TGI [8]: > 100 µM
TGI [9]: > 100 µM
TGI [10]: > 100 µM

Cc1ccc2nc(NC(=O)CSC(=S)N3CCN(Cc4ccccc4)CC3)sc2c1
GI50 [1]: > 100 µM
TGI [1]: > 100 µM
GI50 [2]: > 100 µM
TGI [2]: > 100 µM
GI50 [3]: 4050 nM
TGI [3]: > 100 µM
GI50 [4]: > 100000 nM
TGI [4]: > 100 µM
GI50 [5]: > 100 µM
TGI [5]: > 100 µM
GI50 [6]: > 100 µM
TGI [6]: > 100 µM
GI50 [7]: > 100 µM
TGI [7]: > 100 µM
GI50 [8]: > 100000 nM
TGI [8]: > 100 µM
GI50 [9]: > 100 µM
TGI [9]: > 100 µM
GI50 [10]: > 100000 nM
TGI [10]: > 100 µM
